Some test systems named below: SK-MEL-5; OVCAR-3; SW-620; IGROV-1; NCI-H460; HCT-15; SF-295; SK-OV-3; HL-60; CCRF-CEM; U-251; TK-10; Malme-3M; A498; MDA-N; NCI-H522; A549; COLO 205; OVCAR-8; HCC 2998.
Assay in all cases: DTP human tumour cell line panel, 48 h

The structures appear in SMILES notation.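 Tested at 5 concentrations; 48 h exposure; 96-well plates; endpoints linearly interpolated, else capped at highest concentration. At the GI50, growth is halved.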 The source made the active and inactive calls. Cut-off read from the data, not from the text of the source: active = GI50 up to about 1.1 µM and inactive = higher.

As usually defined, the GI50 is the concentration giving 50% growth inhibition. On to `CCN(CC)CCNc1ccc([N+](=O)[O-])c2nc3ccc(OC)cc3c(N)c12`, for which the GI50 is 0.811 µM (active) with SK-MEL-5; 1.86 µM (inactive) in the assay with OVCAR-3; 0.191 µM (active) in the assay on SW-620; 0.435 µM (active) in the assay with IGROV-1; 1.22 µM (inactive) in the assay on NCI-H460; 1.27 µM with HCT-15. The GI50 in the assay on SF-295 is 1.37 µM (inactive); with SK-OV-3 it was 1.89 µM (inactive); in the assay with HL-60, 0.0826 µM (active); in the assay on CCRF-CEM it was 0.248 µM (active); with U-251, 1.62 µM (inactive); with TK-10, 1.57 µM (inactive). Further, the GI50 in the assay with Malme-3M is 1.78 µM (inactive); in the assay on A498 it was 1.5 µM (inactive); in the assay with MDA-N, 1.67 µM (inactive); in the assay with NCI-H522 it was 0.309 µM (active); with A549 it was 1.27 µM (inactive); in the assay with COLO 205, 0.4 µM (active). Further, in the assay with OVCAR-8, the GI50 was 1.47 µM (inactive).

With `C1CNOCCCONCCCNOCCCONC1`, the GI50 in the assay with SK-MEL-5 is > 100 µM (inactive); in the assay with OVCAR-3, 62.2 µM (inactive); in the assay on SW-620 it was > 100 µM (inactive); in the assay with IGROV-1 it was 56.1 µM (inactive); with NCI-H460, 32.1 µM (inactive); in the assay on HCT-15 it was more than 100 µM. Moreover, the GI50 in the assay on SF-295 is 93.1 µM (inactive); in the assay on SK-OV-3, 37.1 µM (inactive); with HL-60, 51.8 µM (inactive); in the assay with CCRF-CEM it was > 100 µM (inactive); with U-251, 31.7 µM (inactive); in the assay on TK-10, 31 µM (inactive). Further, the GI50 with Malme-3M was 30.1 µM (inactive); with A498, 42.5 µM (inactive); in the assay with MDA-N, > 100 µM (inactive); in the assay with NCI-H522 it was 67.6 µM (inactive); in the assay with A549, 91.8 µM (inactive); in the assay on COLO 205, > 100 µM (inactive). Also, the GI50 in the assay with OVCAR-8 is 60.7 µM (inactive).

Take `Nc1nn2c(=O)c3ccccc3nc2s1`: the GI50 in the assay on SK-MEL-5 was 56 µM (inactive); with OVCAR-3 it was > 100 µM (inactive); in the assay on SW-620 it was 19.2 µM (inactive); in the assay on IGROV-1, 65.5 µM (inactive); in the assay on NCI-H460, > 100 µM (inactive); in the assay on HCT-15 it was 44.9 µM. Also, the GI50 in the assay on SF-295 is > 100 µM (inactive); with SK-OV-3, > 100 µM (inactive); in the assay with CCRF-CEM, 18.2 µM (inactive); with U-251, > 100 µM (inactive); in the assay with HCC 2998 it was > 100 µM (inactive); in the assay with TK-10, > 100 µM (inactive). The GI50 in the assay with A498 is > 100 µM (inactive); with MDA-N it was 38.3 µM (inactive); with NCI-H522, 17.5 µM (inactive); in the assay with A549, > 100 µM (inactive); in the assay on COLO 205 it was 35.4 µM (inactive); with OVCAR-8, 30 µM (inactive).

Take `O=C1C(NCCN2CCOCC2)=C(Cl)C(=O)c2ncccc21`: the GI50 is 0.312 µM (active) with SK-MEL-5; 0.392 µM (active) with OVCAR-3; 0.105 µM (active) with SW-620; 1.05 µM (active) in the assay with IGROV-1; 0.445 µM (active) in the assay on NCI-H460; 0.339 µM with HCT-15. For the same compound, the GI50 is 1.4 µM (inactive) in the assay on SF-295; 1.43 µM (inactive) with SK-OV-3; 0.0249 µM (active) with HL-60; 0.214 µM (active) in the assay on CCRF-CEM; 0.849 µM (active) in the assay with U-251; 0.625 µM (active) with HCC 2998. The GI50 in the assay with TK-10 is 1.45 µM (inactive); with Malme-3M it was 0.564 µM (active); in the assay on A498, 2.03 µM (inactive); with MDA-N, 0.178 µM (active); in the assay on A549, 1.55 µM (inactive); in the assay with OVCAR-8, 0.377 µM (active).

`OC1OC(c2ccc[nH]2)C(F)(F)C(F)(F)C1(F)F` (centres undefined): the GI50 in the assay on SK-MEL-5 is 63.4 µM (inactive); in the assay on OVCAR-3, > 100 µM (inactive); with SW-620, > 100 µM (inactive); with IGROV-1, > 100 µM (inactive); in the assay with NCI-H460, > 100 µM (inactive); in the assay on HCT-15, more than 100 µM. In addition, the GI50 in the assay with SF-295 is > 100 µM (inactive); in the assay on SK-OV-3 it was > 100 µM (inactive); with HL-60 it was 43.5 µM (inactive); with CCRF-CEM, 73.6 µM (inactive); in the assay with U-251, > 100 µM (inactive); in the assay on TK-10, > 100 µM (inactive). Also, the GI50 with Malme-3M was > 100 µM (inactive); with A498, > 100 µM (inactive); with MDA-N, > 100 µM (inactive); in the assay with NCI-H522, > 100 µM (inactive); with A549, > 100 µM (inactive); in the assay on COLO 205, 26.7 µM (inactive). The GI50 in the assay on OVCAR-8 is > 100 µM (inactive).

With `O=C(Nc1cccc(C(F)(F)F)c1)O/N=C(/Cl)CCl`, the GI50 is 40.7 µM (inactive) in the assay with SK-MEL-5; 38.9 µM (inactive) in the assay with OVCAR-3; 38.5 µM (inactive) with SW-620; 62.4 µM (inactive) in the assay with IGROV-1; > 100 µM (inactive) in the assay on NCI-H460; 46.3 µM in the assay with HCT-15. Moreover, the GI50 in the assay on SF-295 is 49.5 µM (inactive); in the assay with SK-OV-3, > 100 µM (inactive); in the assay on HL-60 it was 16.8 µM (inactive); in the assay with CCRF-CEM, 30.2 µM (inactive); in the assay with U-251 it was 39.5 µM (inactive); with HCC 2998, > 100 µM (inactive). In addition, the GI50 is > 100 µM (inactive) in the assay with TK-10; > 100 µM (inactive) with Malme-3M; > 100 µM (inactive) in the assay with A498; 71.8 µM (inactive) in the assay on MDA-N; > 100 µM (inactive) in the assay with A549; 67.5 µM (inactive) in the assay on COLO 205. For the same compound, the GI50 in the assay with OVCAR-8 was > 100 µM (inactive).

In the case of `CC(C)CCCC(C)[C@H]1CC[C@H]2n3c(nnc3-c3ccccc3)CCC[C@]12C` (some centres undefined), the GI50 in the assay with SK-MEL-5 was 10.7 µM (inactive); in the assay with OVCAR-3, 10.5 µM (inactive); with SW-620, 6.21 µM (inactive); in the assay on IGROV-1, 5.74 µM (inactive); in the assay with NCI-H460 it was 9.91 µM (inactive); in the assay on HCT-15, 13.8 µM. The GI50 in the assay on SF-295 was 9.08 µM (inactive); in the assay with SK-OV-3, 13.4 µM (inactive); with HL-60 it was 3.54 µM (inactive); in the assay with CCRF-CEM, 3.49 µM (inactive); with U-251 it was 7.19 µM (inactive); in the assay on HCC 2998 it was < 0.01 µM (active). The GI50 with TK-10 is 21.5 µM (inactive); in the assay on Malme-3M, 23.2 µM (inactive); with A498, 14 µM (inactive); in the assay on MDA-N, 13.6 µM (inactive); in the assay with A549 it was 9.86 µM (inactive); in the assay with COLO 205 it was 3.21 µM (inactive). In addition, the GI50 in the assay on OVCAR-8 was 15.9 µM (inactive).

With `O=S(=O)(/N=S(/Nc1ccccc1)C(F)(F)Cl)c1ccccc1` (centres undefined), the GI50 in the assay on SK-MEL-5 is > 100 µM (inactive); in the assay with OVCAR-3, > 100 µM (inactive); in the assay on SW-620, > 100 µM (inactive); in the assay with IGROV-1, > 100 µM (inactive); with NCI-H460, > 100 µM (inactive); with HCT-15, more than 100 µM. Besides, the GI50 in the assay with SF-295, in the assay on SK-OV-3, with HL-60, in the assay with CCRF-CEM, with U-251 and with TK-10 was > 100 µM (inactive) each time. Besides, the GI50 in the assay with Malme-3M, in the assay with A498, in the assay on MDA-N, with A549, with COLO 205 and in the assay on OVCAR-8 was > 100 µM (inactive) in each case.

Turning to `CCC(C)SC1SCC2C(=O)N(C)C3(CC3C)C(=O)OCC(NC(=O)c3nc4ccccc4cc3O)C(=O)NC(C)C(=O)N(C)C1C(=O)N(C)C1(CC1C)C(=O)OCC(NC(=O)c1nc3ccccc3cc1O)C(=O)NC(C)C(=O)N2C` (centres undefined), the GI50 with SW-620 is 4.78e-05 µM (active); in the assay with IGROV-1, 0.000137 µM (active); in the assay on NCI-H460, 4.82e-05 µM (active); with HCT-15, 0.00204 µM; in the assay with SF-295 it was 9.91e-05 µM (active); with SK-OV-3, 0.000144 µM (active). Also, the GI50 in the assay with HL-60 was 9.29e-05 µM (active); with CCRF-CEM, 8.73e-05 µM (active); in the assay with U-251, 3.18e-05 µM (active); in the assay with HCC 2998, 0.000103 µM (active); in the assay with Malme-3M it was 4.12e-05 µM (active); with A498 it was 0.000102 µM (active). The GI50 in the assay on MDA-N was 4.71e-05 µM (active); in the assay with A549 it was 0.00015 µM (active); with COLO 205, 5.01e-05 µM (active); with OVCAR-8, 9.1e-05 µM (active).

Regarding `COc1ccc(/C=C2/NC(=S)N=C2Cl)cc1`, the GI50 in the assay with SK-MEL-5 is > 100 µM (inactive); with OVCAR-3, > 100 µM (inactive); in the assay with SW-620 it was > 100 µM (inactive); with IGROV-1, > 100 µM (inactive); in the assay on HCT-15 it was more than 100 µM; in the assay on SF-295, > 100 µM (inactive). Also, the GI50 in the assay with SK-OV-3, in the assay on HL-60, with CCRF-CEM, in the assay with U-251, with TK-10 and in the assay with Malme-3M was > 100 µM (inactive) throughout. Moreover, the GI50 was > 100 µM (inactive) in the assay on A498; > 100 µM (inactive) with MDA-N; > 100 µM (inactive) in the assay on NCI-H522; 85.1 µM (inactive) with A549; > 100 µM (inactive) in the assay on COLO 205; > 100 µM (inactive) in the assay on OVCAR-8.

With `Cc1ccc(/N=C2\SC(=S)N(CCC[N+](C)(C)C)\C2=N/c2ccc(C)cc2)cc1`, the GI50 was 10.9 µM (inactive) in the assay with SK-MEL-5; 20.7 µM (inactive) with SW-620; 10.1 µM (inactive) with IGROV-1; 18.1 µM (inactive) in the assay on NCI-H460; 13.8 µM with HCT-15; 1.99 µM (inactive) in the assay on HL-60. The GI50 in the assay on CCRF-CEM was 19.1 µM (inactive); with U-251, 11.3 µM (inactive); with HCC 2998, 15.9 µM (inactive); with TK-10, 18.9 µM (inactive); with Malme-3M, 18.1 µM (inactive); in the assay on A498 it was 17.2 µM (inactive). Besides, the GI50 is 12.8 µM (inactive) in the assay on MDA-N, 15.6 µM (inactive) with A549, 10.3 µM (inactive) in the assay with COLO 205 and 15.4 µM (inactive) in the assay on OVCAR-8.

These data come from ChEMBL document CHEMBL1201862, “PubChem BioAssay data set” (2004).
